In brackets after ≈: the same amount, converted by molar mass. Where two headings read alike, the source gives them in different places.

We go through seven compounds from article PMC12195250, “Synthesis, Biological Evaluation, Molecular Dynamics, and QM-MM Calculation of Spiro-Acridine Derivatives Against Leishmaniasis” (Microorganisms, 2025).

For data set [1], the system named is L. infantum promastigotes (Strain MHOM/BR/70/BH46). The data set is described as follows: Anti-promastigote effect, Neubauer chamber counting. It counts as cell-based, Leishmania infantum. The settings on record: 72 h incubation, read-out: L. infantum IC50PRO. The protocol: (§1) The promastigote cultures of L. infantum (Strain MHOM/BR/70/BH46) and L. amazonensis (Strain MHOM/BR/PH8) were kept in Schneider medium (Sigma-Aldrich, St. Louis, MO, USA) supplemented with 20% fetal bovine serum (FBS) and 1% streptomycin/penicillin in a B.O.D. incubator (J. Prolab, model JP. 100 LBCM/CPAM) at 26 °C. The promastigote strains were used in the exponential growth phase in all stages for experimental purposes.
(§2) The Neubauer chamber method was used to assess the inhibitory concentrations of the synthesized spiro-acridines capable of eliminating 50% of the promastigotes in cultures of L. amazonensis and L. infantum (IC50) strains. Promastigotes from both species were collected, counted, and diluted in Schneider’s medium (Sigma-Aldrich, St. Louis, MO, USA) supplemented with 20% fetal bovine serum (FBS) at a final concentration of 1 × 10^6 cells/mL. The evaluated promastigotes were then exposed to different concentrations of the tested compounds (10, 5, 2.5, 1.25, and 0.625 μg/mL). The positive control used the commercial drug Amphotericin B®, while the negative control consisted of promastigotes incubated in Schneider’s medium alone. After 72 h of incubation at 25 °C, culture growth was observed by counting the viable cells using a Neubauer chamber and calculated using the following Equation (1): No. Leishmania/mL = No. of cells counted × No. of Neubauer chamber(1) quadrants × the dilution used × 10^4 (Neubauer chamber correction factor)
(§3) The concentration parameter that inhibits 50% of parasite growth (IC50) was used to estimate the growth inhibition of the promastigote species of Leishmania sp. Thus, IC50 was determined by linear regression analysis with SPSS 8.0 software for Windows. Each test was performed in two independent experiments, with different cultures and in technical triplicate.

Data set [2] relates to human red blood peripheral cells (O+). The experiment in a line: Hemocompatibility (hemolysis) in red blood cells. It is filed as cell-based. Particulars: 1 h at 37 °C. The method, then: The hemocompatibility of the spiro-acridine derivatives was determined using human red blood peripheral cells (O+) from healthy adults. The erythrocytes were diluted in phosphate-buffered saline (PBS) to a concentration of 5% in an 80 µL suspension and subsequently incubated with 20 µL of different concentrations of spiro-acridine derivatives and Amphotericin B® (400, 200, 100, 50, 25, 12,5, 6,25 and 3,12 μg/mL). Afterward, the samples were incubated for 1 h at 37 °C in a B.O.D incubator, and the reaction was stopped by adding 200 μL of PBS (1.5 mM KH2PO4, 8.1 mM Na2HPO4, 136.9 mM NaCl, and 2.6 mM KCl, pH 7.2). The samples were centrifuged at 2000 rpm for 10 min, at room temperature. The supernatants were collected and subjected to spectrophotometry using a spectrophotometer (model Biosystems ELx800, Curitiba, PR, Brazil) at 540 nm. The hemolysis percentage was determined as [(Abssam − Abscon)/(Abstot − Abscon) × 100], where Abssam refers to the absorbance of the sample, Abscon to the absorbance of the blank control (without compounds), and Abstot to the absorbance of total hemolysis (obtained by replacing the sample solution with an equal volume of Milli-Q water). The results were expressed as average hemolytic concentration (HC50), considering the positive control as 100% hemolysis.

Data set [3] deals with L. amazonensis promastigotes (Strain MHOM/BR/PH8). The experiment in a line: Anti-promastigote effect, Neubauer chamber counting. It is filed as cell-based, Leishmania amazonensis. The settings on record: 72 h incubation, read-out: L. amazonensis IC50PRO. The method, then: as §1, §2, §3
In data set [4] the test system is L. infantum promastigote forms. Details: method as in PMID 34311084. Particulars: cited from earlier work.
In data set [5] the test system is L. amazonensis axenic amastigotes. The experiment in a line: Anti-amastigote effect on axenic amastigotes, MTT. It is filed as cell-based, Leishmania amazonensis. The protocol: The amastigote forms of L. amazonensis were maintained under cryopreservation until they were transferred to an NNN medium (Novy–MacNeal–Nicolle) and incubated at 26 °C until the parasites reached the log growth phase. Subsequently, the suspension was transferred to Schneider culture medium (Sigma-Aldrich, St. Louis, MO, USA), supplemented with 20% inactivated fetal bovine serum and 0.2% gentamicin sulfate at 26 °C, causing the parasites to return to the log growth phase. The cultures were then maintained at 37 °C, producing a growth curve and the formation of the axenic amastigote strains.
The concentrations of the compounds AMTAC-02 and ACMD-03 capable of eliminating 50% of the cells in the cultures of L. amazonensis amastigotes (IC50) were determined using the MTT [3-(4,5-dimethylthiazol-2-yl)-2,5-diphenyltetrazolium bromide] (Sigma-Aldrich) reagent. In a 96-well plate, the assay was initiated by diluting both compounds to concentrations of 2, 4, 8, 16, and 32 μg/mL and 2.0 × 10^5 axenic amastigotes per well. The plates were incubated at 37 °C for 24 h. Then, 10 μL of MTT was added per well, and the cultures were re-incubated for 4 h. Subsequently, 50 μL of dimethyl sulfoxide was added to each well to solubilize the formazan crystals formed. The absorbances were measured using a SpectraMAX GeminiXS plate spectrophotometer (Molecular Devices LLC) at a wavelength of 570 nm. The negative control consisted of untreated cells, while the positive control was assessed by incubating the axenic amastigotes with the reference drug Amphotericin B® [13].

The nature of data set [6]: Cytotoxic effect in J774 macrophage cultures, MTT. It counts as cell-based. The settings on record: mouse, J774A.1 macrophages, read-out: CC50 (50% cytotoxic concentration in J774 macrophage). The protocol:
J774A.1 macrophages (ATCC TIB-67) were kept cryopreserved in a Falcon tube containing 5 mL of DMEM (Dulbecco’s modified Eagle medium) culture medium (Gibco®), supplemented with 10% inactivated fetal bovine serum, 1% non-essential amino acids, and 1% gentamicin sulfate. The tube was centrifuged at 200 rpm for 10 min. Afterward, the supernatant was discarded, and the cells were resuspended in the culture medium and transferred to a culture bottle kept in an incubator at 37 °C with 5% CO2. The assays were carried out in triplicate using a 96-well plate to evaluate the cytotoxic effect of the selected spiro-acridine compounds on J774 macrophage cultures. The compounds were diluted and seeded at predetermined concentrations (32, 16, 8, 4, and 2 μg/mL), parallel to the distribution of 1.0 × 10^5 J774 macrophages per well. The plate was incubated for two hours in a 5% CO2 incubator at 37 °C. Only the cells were incubated in the negative control without the tested molecules. In contrast, the positive control was performed by incubating the macrophages with the commercial drug Amphotericin B®. Later, 10 μL of the MTT reagent was added per well, and the cultures were re-incubated for 4 h. Finally, 50 μL of DMSO was added to each well, and the absorbance was read on a SpectraMAX GeminiXS plate spectrophotometer (Molecular Devices LLC, San Jose, CA, USA) at a wavelength of 570 nm. […]

Data set [7] deals with L. amazonensis promastigotes. Details: method as in PMID 33765552. The settings on record: cited from earlier work.
Data set [8] concerns L. brasiliensis promastigotes. Details: method as in PMID 33168414. The settings on record: cited from earlier work.
Data set [9] concerns L. brasiliensis axenic amastigotes. Details: method as in PMID 33168414. Particulars: cited from earlier work.

As to `N#CC1=CC2(c3ccccc3Nc3ccccc32)N(c2ccccc2)C1=O` [ACMD-01, (E)5′-oxo-1′-phenyl-1′, 5′-dihydro-10H-spiro{acridine-9,2′-pyrrole]-4′-carbonitrile], in data set [1] (Leishmania infantum), the IC50 is 3.9 µM. The “HC50 (concentration capable of promoting 50% hemolysis)” value in [2] is on record as over 400 µM.

Turning to `COc1ccc(N2C(=O)C(C#N)=CC23c2ccccc2Nc2ccccc23)cc1` [ACMD-06, (E)1′-(4-methoxyphenyl)-5′-oxo-1′, 5′-dihydro-10H-spiro{acridine-9,2′-pyrrole]-4′-carbonitrile], the values for the IC50 in data set [1] and in data set [3] were 3.5 µM and 235 µM, respectively. Besides, the “HC50 (concentration capable of promoting 50% hemolysis)” value in data set [2] is on record as over 400 µM.

Consider `N#CC1=CC2(c3ccccc3Nc3ccccc32)N(/N=C/c2ccccc2)C1=O` [AMTAC-01, (E)-1′-(benzylideneamino)-5′-oxo-1′,5′-dihydro-10H-spiro[acridine-9,2′-pyrrole]-4′-carbonitrile], for which the IC50 came out at 6.27 µM in data set [1] (Leishmania infantum) and 1.23 µM in data set [3] (Leishmania amazonensis). Besides, the “HC50 (concentration capable of promoting 50% hemolysis)” value in data set [2] is on record as over 400 µM. For the same compound, in [4], the “IC50 against the promastigote forms” value was 2.039 µg/mL (≈ 5.42 µM).

In the case of `N#CC1=CC2(c3ccccc3Nc3ccccc32)N(/N=C/c2ccc(Cl)cc2)C1=O` [AMTAC-06, (E)1-(4-chlorobenzylideneamino)-5-oxo-1,5-dihydro-10H-spiro[acridine-9,2-pyrrole]-4-carbonitrile], the IC50 came to 13.8 µM in [1] and 0.75 µM in [3]. For the same compound, in data set [2], the “HC50 (concentration capable of promoting 50% hemolysis)” value is reported as over 400 µM.

On to `C[C@@H]1[C@H](O)[C@@H](C)/C=C/C=C/C=C/C=C/C=C/C=C/C=C/[C@H](O[C@@H]2O[C@H](C)[C@@H](O)[C@H](N)[C@@H]2O)C[C@@H]2O[C@](O)(C[C@@H](O)C[C@@H](O)[C@H](O)CC[C@@H](O)C[C@@H](O)CC(=O)O[C@H]1C)C[C@H](O)[C@H]2C(=O)O` [ANFO B, Amphotericin B, reference compound], for which the IC50 in [1] (Leishmania infantum) amounted to 0.05 µM; in data set [3] (Leishmania amazonensis) it was 1.53 µM; in [5] (Leishmania amazonensis, 24 h, L. amazonensis axenic amastigotes, MTT), 1.08 µM. Also, the “SI (selectivity index)” value in data set [5] (J774 macrophage CC50 versus L. amazonensis axenic amastigote IC50AMA) is 2.8. Also, the “HC50 (concentration capable of promoting 50% hemolysis)” value in data set [2] came to 24.25 µM. The CC50 at 2 h in data set [6] came out at 3.09 µM.

For `CC1=CC(=O)[C@H]2C(C)(C)CCC[C@]2(C)[C@@]1(O)CCc1ccoc1` [SOL, solidagenone], the IC50 in data set [7] is 34.5 µM.

As for cordiaquinone E [CORe], the IC50 was 4.5 ± 0.3 µM in [8] and 2.89 ± 0.11 µM in data set [9].
